The structures appear in SMILES notation. Some results are limits rather than exact numbers.

The first experiment concerns SARS-CoV-2 strain USA-WA1/2020. As to the kind of experiment: microbe, parasite or virus in culture. It is filed as cell-based. Particulars: Severe acute respiratory syndrome coronavirus 2, HeLa-ACE2, 24 h, HeLa-ACE2 cells, SARS-CoV-2 infection, 24 h; cells given as a bound; read-out: EC50, uM (Hela).
In general, EC50 refers to the concentration at which the effect is half-maximal. With `CC(=O)N1CCN(C(=O)C(=O)N[C@@H](CC(C)C)C(=O)N[C@@H](C[C@@H]2CCNC2=O)C(=O)COc2c(F)c(F)cc(F)c2F)CC1` [Compound 104, (S)-2-(2-(4-acetylpiperazin-1-yl)-2-oxoacetamido)-4-methyl-N-((S)-3-oxo-1-((S)-2-oxopyrrolidin-3-yl)-4-(2,3,5,6-tetrafluorophenoxy)butan-2-yl)pentanamide], the EC50 is > 1 µM.

Consider `Cc1ccccc1NC(=O)C(=O)N(C)[C@@H](CC(C)C)C(=O)N[C@@H](C[C@@H]1CCNC1=O)C(=O)COc1c(F)c(F)cc(F)c1F` [Compound 105, N1-methyl-N1-((S)-4-methyl-1-oxo-1-(((S)-3-oxo-1-((S)-2-oxopyrrolidin-3-yl)-4-(2,3,5,6-tetrafluorophenoxy)butan-2-yl)amino)pentan-2-yl)-N2-(o-tolyl)oxalamide], for which the EC50 was > 1 µM.

Still in this experiment, the particulars now being: Severe acute respiratory syndrome coronavirus 2, HeLa-ACE2, 24 h, HeLa-ACE2 cells, SARS-CoV-2 infection, 24 h; class symbols; read-out: EC50, uM (Hela).
Turning to `CC(C)C[C@H](NC(=O)C(Nc1ccccc1F)C(F)(F)F)C(=O)N[C@@H](C[C@@H]1CCNC1=O)C(=O)COc1c(F)c(F)cc(F)c1F` (stereo partly drawn) [Compound 97, (2S)-4-methyl-N-((S)-3-oxo-1-((S)-2-oxopyrrolidin-3-yl)-4-(2,3,5,6-tetrafluorophenoxy)butan-2-yl)-2-(3,3,3-trifluoro-2-((2-fluorophenyl)-amino)propanamido)-pentanamide], the EC50 lay in the range of 0.2 to 0.5 µM.

As to `CC(C)C[C@H](NC(=O)C(=O)NC1CC1)C(=O)N[C@@H](C[C@@H]1CCNC1=O)C(=O)COc1c(F)c(F)cc(F)c1F` [Compound 98, N1-cyclopropyl-N2-((S)-4-methyl-1-oxo-1-(((S)-3-oxo-1-((S)-2-oxopyrrolidin-3-yl)-4-(2,3,5,6-tetrafluorophenoxy)butan-2-yl)amino)pentan-2-yl)oxalamide], the 50% effective concentration (EC50) lay within 0.05 to 0.2 µM.

As for `CC(C)C[C@H](NC(=O)C(=O)NC1(C)CC1)C(=O)N[C@@H](C[C@@H]1CCNC1=O)C(=O)COc1c(F)c(F)cc(F)c1F` [Compound 99, N1-((S)-4-methyl-1-oxo-1-(((S)-3-oxo-1-((S)-2-oxopyrrolidin-3-yl)-4-(2,3,5,6-tetrafluorophenoxy)butan-2-yl)amino)pentan-2-yl)-N2-(1-methyl-cyclopropyl)oxalamide], the concentration for a half-maximal effect (EC50) was in the range of 0.05 to 0.2 µM.

For the compound `CC(C)C[C@H](NC(=O)C(=O)NC(C)(C)C)C(=O)N[C@@H](C[C@@H]1CCNC1=O)C(=O)COc1c(F)c(F)cc(F)c1F` [Compound 100, N1-(tert-butyl)-N2-((S)-4-methyl-1-oxo-1-(((S)-3-oxo-1-((S)-2-oxopyrrolidin-3-yl)-4-(2,3,5,6-tetrafluorophenoxy)butan-2-yl)amino)pentan-2-yl)oxalamide], the EC50 was 0.05 to 0.2 µM.

As to `CC(C)C[C@H](NC(=O)C(=O)NC1CCOCC1)C(=O)N[C@@H](C[C@@H]1CCNC1=O)C(=O)COc1c(F)c(F)cc(F)c1F` [Compound 101, N1-((S)-4-methyl-1-oxo-1-(((S)-3-oxo-1-((S)-2-oxopyrrolidin-3-yl)-4-(2,3,5,6-tetrafluorophenoxy)butan-2-yl)amino)pentan-2-yl)-N2-(tetrahydro-2H-pyran-4-yl)oxalamide], the EC50 was 0.05 to 0.2 µM.

`CC(C)C[C@H](NC(=O)C(=O)NC1CCCC1)C(=O)N[C@@H](C[C@@H]1CCNC1=O)C(=O)COc1c(F)c(F)cc(F)c1F` [Compound 102, N1-cyclopentyl-N2-((S)-4-methyl-1-oxo-1-(((S)-3-oxo-1-((S)-2-oxopyrrolidin-3-yl)-4-(2,3,5,6-tetrafluorophenoxy)butan-2-yl)amino)pentan-2-yl)oxalamide]: the EC50 is 0.05 to 0.2 µM.

Regarding `CC(C)C[C@H](NC(=O)C(=O)N[C@H]1CCCOC1)C(=O)N[C@@H](C[C@@H]1CCNC1=O)C(=O)COc1c(F)c(F)cc(F)c1F` [Compound 103, N1-((S)-4-methyl-1-oxo-1-(((S)-3-oxo-1-((S)-2-oxopyrrolidin-3-yl)-4-(2,3,5,6-tetrafluorophenoxy)butan-2-yl)amino)pentan-2-yl)-N2-((S)-tetrahydro-2H-pyran-3-yl)oxalamide], the EC50 lay in the range of 0.05 to 0.2 µM.

The record behind these values is patent publication US11708348B2, “Protease inhibitors for treatment of coronavirus infections” (The Scripps Research Institute, priority 2021, dated 2023).
